From article PMC3510490, “Structure of Actin-related protein 8 and its contribution to nucleosome binding” (Nucleic Acids Research, 2012) come the findings set out here.

Assay [1] deals with T1, Homo sapiens Arp8 (Δ1–33) (Homo sapiens, UniProt Q9H981).
T1 construct: gene ACTR8; N-terminal 8xHis tag cleaved by PreScission protease; E. coli BL21(DE3); monomer
Put plainly: X-ray crystal structure, […] Å. The conditions noted are these: ATP co-purified from expression host, not added; one metal ion (likely Mg2+); nucleotide-binding cleft; pH 6.1.

A further assay has as its target T2, human Arp8 (Homo sapiens, UniProt Q9H981).
T2 construct: gene ACTR8; monomer
As to the kind of experiment: […] phosphate release, TLC. Type of assay: biochemical. The conditions noted are these: 100 µM ATP with 5 nM [γ-32P]ATP (labelled compound), 2 mM MgCl2, pH 7.9, 30 °C; construct (full-length or Δ1-33) not stated.

The target of another assay is T3, yeast Arp8 (Saccharomyces cerevisiae, UniProt Q12386).
T3 construct: recombinant from HighFive insect cells, prepared as described previously; monomer
T3 sequence (Q12386 1-881): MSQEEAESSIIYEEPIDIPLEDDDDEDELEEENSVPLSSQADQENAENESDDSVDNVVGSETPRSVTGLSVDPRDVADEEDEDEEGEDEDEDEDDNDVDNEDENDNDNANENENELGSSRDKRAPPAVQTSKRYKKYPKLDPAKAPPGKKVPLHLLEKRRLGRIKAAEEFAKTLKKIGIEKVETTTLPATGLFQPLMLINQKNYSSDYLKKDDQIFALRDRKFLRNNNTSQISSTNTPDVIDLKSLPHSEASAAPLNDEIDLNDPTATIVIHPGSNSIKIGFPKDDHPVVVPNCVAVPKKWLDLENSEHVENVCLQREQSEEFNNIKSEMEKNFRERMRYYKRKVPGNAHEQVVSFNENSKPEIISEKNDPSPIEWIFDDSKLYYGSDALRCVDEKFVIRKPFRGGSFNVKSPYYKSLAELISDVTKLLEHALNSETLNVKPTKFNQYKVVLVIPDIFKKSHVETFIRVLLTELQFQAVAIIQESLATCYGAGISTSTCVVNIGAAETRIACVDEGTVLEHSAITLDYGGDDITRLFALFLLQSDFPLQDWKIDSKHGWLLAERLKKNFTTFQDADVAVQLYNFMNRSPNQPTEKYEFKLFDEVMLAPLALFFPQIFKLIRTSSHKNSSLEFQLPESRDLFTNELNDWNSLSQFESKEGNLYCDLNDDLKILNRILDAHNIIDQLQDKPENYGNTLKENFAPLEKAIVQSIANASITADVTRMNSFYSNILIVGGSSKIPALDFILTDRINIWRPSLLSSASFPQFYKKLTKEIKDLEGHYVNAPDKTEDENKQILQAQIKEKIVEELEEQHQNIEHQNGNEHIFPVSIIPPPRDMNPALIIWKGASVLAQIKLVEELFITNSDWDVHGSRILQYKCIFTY
Put plainly: […] phosphate release, TLC. Type of assay: biochemical. As to conditions: 100 µM ATP with 5 nM [γ-32P]ATP (labelled compound), 2 mM MgCl2, pH 7.9, 30 °C.

Assay [2] deals with T4, Saccharomyces cerevisiae INO80 sub-complex I (Arp8–Arp4–actin-HSA) (Saccharomyces cerevisiae, UniProt P60010+Q12386).
T4 construct: co-expressed Arp4, Arp8, actin and His6-Ino80(462-685) in HighFive insect cells; monomeric complex; with Actin-related protein 4; Chromatin-remodeling ATPase INO80
Put plainly: […] phosphate release, TLC. Type of assay: biochemical. As to conditions: 100 µM ATP with 5 nM [γ-32P]ATP (labelled compound), 2 mM MgCl2, pH 7.9, 30 °C; active subunit not resolved (Arp8 and/or actin).

T2 sequence (Q9H981 whole entry): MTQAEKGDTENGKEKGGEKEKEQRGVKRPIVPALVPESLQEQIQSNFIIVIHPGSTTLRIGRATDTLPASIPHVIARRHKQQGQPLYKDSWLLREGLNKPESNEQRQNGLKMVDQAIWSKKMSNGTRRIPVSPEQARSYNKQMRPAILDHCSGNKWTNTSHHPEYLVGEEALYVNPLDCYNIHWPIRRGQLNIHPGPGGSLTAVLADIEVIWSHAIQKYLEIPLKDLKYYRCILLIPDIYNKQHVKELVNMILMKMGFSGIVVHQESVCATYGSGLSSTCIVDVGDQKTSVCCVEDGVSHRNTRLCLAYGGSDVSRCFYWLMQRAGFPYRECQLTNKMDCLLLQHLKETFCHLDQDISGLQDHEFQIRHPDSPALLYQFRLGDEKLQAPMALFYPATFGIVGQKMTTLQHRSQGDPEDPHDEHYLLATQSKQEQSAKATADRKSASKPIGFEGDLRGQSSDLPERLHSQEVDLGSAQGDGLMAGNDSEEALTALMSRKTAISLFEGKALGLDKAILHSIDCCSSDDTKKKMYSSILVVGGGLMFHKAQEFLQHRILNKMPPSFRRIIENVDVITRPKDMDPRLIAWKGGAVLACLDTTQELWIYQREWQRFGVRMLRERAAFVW
T1 sequence (Q9H981 34-624, stated change not applied): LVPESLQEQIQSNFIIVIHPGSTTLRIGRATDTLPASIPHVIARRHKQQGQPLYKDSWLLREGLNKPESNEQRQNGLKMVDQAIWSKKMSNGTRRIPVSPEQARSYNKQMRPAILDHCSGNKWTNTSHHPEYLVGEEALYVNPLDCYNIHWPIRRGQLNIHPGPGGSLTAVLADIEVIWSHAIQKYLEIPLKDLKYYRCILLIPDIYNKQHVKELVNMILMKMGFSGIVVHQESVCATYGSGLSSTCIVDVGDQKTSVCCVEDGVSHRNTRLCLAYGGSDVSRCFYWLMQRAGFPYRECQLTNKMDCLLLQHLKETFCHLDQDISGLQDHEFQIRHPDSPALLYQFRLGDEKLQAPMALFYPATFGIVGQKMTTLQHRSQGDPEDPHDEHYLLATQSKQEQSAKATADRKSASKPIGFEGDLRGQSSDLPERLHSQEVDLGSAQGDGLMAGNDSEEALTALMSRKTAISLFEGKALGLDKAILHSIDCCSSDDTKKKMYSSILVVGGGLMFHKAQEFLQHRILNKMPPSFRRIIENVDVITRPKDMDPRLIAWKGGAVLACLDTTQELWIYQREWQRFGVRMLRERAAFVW

Turning to `Nc1ncnc2c1ncn2[C@@H]1O[C@H](COP(=O)(O)OP(=O)(O)OP(=O)(O)O)[C@@H](O)[C@H]1O` [ATP], the “X-ray crystal structure, 2.6 Å” value in assay [1] is recorded as “Electron density in the nucleotide-binding cleft of actin could clearly be assigned to ATP”. For the same molecule, the “low basal ATPase activity” value is “yeast and human Arp8 possess a low basal ATPase activity” at human Arp8; “yeast and human Arp8 possess a low basal ATPase activity” on yeast Arp8; “sub-complex I (Arp8–Arp4–actin-HSA) also shows a low basal ATPase activity” in assay [2].
